“Also recorded” adds a separate entry of the source. Where two headings read alike, the source gives them in different places.
Assays:
[1] = biological target: bee venom phospholipase A2 (PLA2) (Apis mellifera, UniProt P00630)
[2] = system: MT4 cells; assay: Drug cytotoxicity MTT assay (TC50), uninfected MT4 cells; format: cell-based
Experimental: (§1) Three assays for anti-HIV activity were used and the IC50 was calculated from these assays; (i) syncytial cell assays, (ii) reverse transcriptase assays, and (iii) direct […]. In addition, direct drug cytotoxicity was tested ‘as a control’ in each assay which merely means that the drug was dosed to the cells without virus present. This control assured that only the antiviral effect of the compound is measured. However, this drug cytotoxicity was not used to calculate the TC50 because the TC50 required doses of drug that were higher than the effective concentrations. Thus the TC50 is the dose of drug that kills 50% of the cells without virus present and was measured in MTT assays using the same cells type to evaluate antiviral activity. The therapeutic index was calculated from TC50/IC50. The ability of anti-HIV phospholipids to inhibit direct cytopathic effect caused by HIV infection was also measured.
(§2) MT4 cells were plated in 96-well microtiter plates at 8×10^4 cells/well in a volume of 90 μl. [Note: To compare TC50 to IC50, the same cell type used in antiviral assays was tested in the MTT assay; for these experiments, MT4 cells were used to evaluate the syncytial cell assays and PBMC's were used to compare the PBMC/RT assay]. To this was added one minimum cytotoxic dose of HIV in a volume of 10 μl. The test drug was added in 100 μl aliquots at several concentrations. A control plate using uninfected MT4 cells was set up simultaneously to assess cytotoxicity due to the drug alone. The plates were then incubated for five days at 37° C. Then the media was aspirated from the wells and replaced with 100 μl MTT solution (3-(4,5-dimethylthiazol-2-yl)-2,5-di-phenyltetrazolium bromide, 1 mg/ml in PBS) and incubated for 4 hours at 37° C. The plates were then centrifuged to pellet the cells, and the supernatants were removed (centrifugation can be omitted if the supernatants are removed carefully). […] Plates were read on an ELISA reader at Abs 570 nm. […]

[3] = system: HIV; assay: microbe, parasite or virus in culture
Experimental: (§3) Briefly, the assay was performed as follows. On Day 0, MT4 cells were infected with HIV. On Day 3, mix 10^3-10^4 infected cells (resuspend cells at 10^4-10^5 cells/ml so that the desired number of cells is in a volume of 100 μl) with 10^5 SupT1 cells (suspended at 10^6/ml, so that there are 10^5 cells per 100 μl) in a 96 well plate. Infected cells are titered to find the optimum number of syncytial cells to count. Cells are counted either manually or by flow cytometry. […] The time intervals for other cell lines may vary. To assay drugs that block syncytia formation, 50 μl SupT1, 50 μl infected (MT4) cells (total cell number is the same), and 100 μl of drug are present.

[4] = in vitro
Experimental: Stability of Anti-HIV Phlospholipids in Fresh Blood at 38° C.
Drug development using phospholipids will require that the parent compound is stable in blood. […] L-PE1 and L-PE2 are identical except that the methylene group in the 13 position of the sn-2 alkyl chain has been replaced with an oxygen atom.

[5] = system: HIV infected MT4 cells; assay: Synergism with AZT in syncytial cell assays (FIG. 6); format: cell-based; conditions: for increase in activity (shift in dose response curve) when AZT was added: plus 0.5 nM AZT
Experimental: as §3

[6] = system: PBMC; assay: Drug cytotoxicity MTT assay (TC50), PBMC; format: cell-based; conditions: PBMC cells, absence of HIV
Experimental: as §1
(§4) MT4 cells were plated in 96-well microtiter plates at 8×10^4 cells/well in a volume of 90 μl. [Note: To compare TC50 to IC50, the same cell type used in antiviral assays was tested in the MTT assay; for these experiments, MT4 cells were used to evaluate the syncytial cell assays and PBMC's were used to compare the PBMC/RT assay]. To this was added one minimum cytotoxic dose of HIV in a volume of 10 μl. […] Plates were read on an ELISA reader at Abs 570 nm. […]

[7] = Liposome formation in aqueous buffers; format: physicochemical
Description: The increased activity of L-AC1 in MDM compared to CEM cells may be due to the phagocytosis of L-AC1 liposomes in MDM.

[8] = system: HIV (S5G7, subclone of HTLVIIIB); assay: microbe, parasite or virus in culture; format: cell-based; conditions: 7 days after infection, read-out: IC50 50% Reduction in Reverse Transcriptase Activity PBMC
[9] = system: HIV-1 (3B); assay: HIV-1 p24 antigen capture assay in infected monocyte-derived macrophages; format: cell-based; conditions: for dose response behaviour in MDM: 1-100 μM; for inhibition of HIV p24 antigen production in MDM: 50 μM
[10] = system: HIV; assay: Anti-HIV activity of D-AC2 and PE analogs compared with 12MO (FIG. 7); format: cell-based
[11] = system: HIV-1; conditions: CEM cells
Description: The S5G7 strain of HIV was used. S5G7 is a subclone of HTLVIIIB grown in H9 cells, and highly virulent regarding T cell infectivity, but less so for monocytes; this strain was obtained from Abbott Laboratories.
This assay measures the ability of a drug to inhibit the HIV virus from killing cells. CEM cells were used for this assay.
The T-cell HIV inhibition assay method of acutely infected cells is an automated tetrazolium based calorimetric assay adapted from Novak, et al., Aids Res. and Human Retroviruses, 6, 973 (1990). Assays were performed in 96-well tissue culture plates. CEM cells were grown in RPMI-1640 medium (Gibco) supplemented with 10% fetal calf serum and were then treated with polybrene (2 μg/ml). A 80 μl volume of medium containing 1×10^4 cells was dispensed into each well of the tissue culture plate. To each well was added a 100 μl volume of test compound dissolved in tissue culture medium (or medium without test compound as a control) to achieve the desired final concentration and the cells were incubated at 37° C. for 1 hour. A frozen culture of HIV-1 was diluted in culture medium to a concentration of 5×10^6 TCID50 per ml (TCID50=the dose of virus that infects 50% of cells in tissue culture), and a 20 μl volume of the virus sample (containing 1000 TCID50 of virus) was added to wells containing test compound and to wells containing only medium (infected control cells). […] Several wells received culture medium without virus (uninfected control cells). Azidothymidine (AZT) was tested as a positive drug control.
Following the addition of virus, cells were incubated at 37° C. in a humidified, 5% CO2 atmosphere for 7 days. Additional aliquots of test compounds were added on days 2 and 5. On day 7 post-infection, the cells in each well were resuspended and a 100 μl sample of each cell suspension was removed for assay. […] The absorbance of each sample was determined at 590 nm using a Molecular Devices microplate reader. The % reduction of the virus induced cytopathic effect (CPE) by the test compounds was calculated from the equation.

[12] = system: CEM cells
[13] = Drug cytotoxicity MTT assay (TC50), uninfected MT4 cells; format: cell-based; conditions: human, uninfected MT4 cells; MT4 cells, absence of HIV
Experimental: as §1, §2

[14] = delivered to cells as a free fatty acid; cited from earlier work
[15] = system: CEM cells; assay: Direct cytotoxicity of compounds to CEM cells without virus; conditions: for direct cytotoxicity to CEM cells: no virus
[16] = system: HIV infected MT4 cells; conditions: literature report; cited from earlier work
[17] = Drug cytotoxicity MTT assay (TC50), PBMC; format: cell-based; conditions: human, uninfected; PBMC cells, absence of HIV
Experimental: as §1, §4

[18] = system: monocyte-derived macrophages (MDM); assay: Toxicity seen in the macrophage p24 experiment; conditions: 100 μM

bee venom phospholipase A2 (PLA2), sequence (P00630 34-167 limits assumed): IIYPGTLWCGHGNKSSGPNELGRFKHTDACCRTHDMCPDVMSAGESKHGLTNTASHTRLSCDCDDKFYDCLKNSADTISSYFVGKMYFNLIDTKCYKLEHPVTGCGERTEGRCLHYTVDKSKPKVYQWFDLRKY

## 1,2-(di-12-methoxydodecanoyl)-sn-3-phosphatidylcholine [L-AC2]
[1]
  hydrolysis by PLA2: quantitatively hydrolyzed
[2]; MT4 cells, absence of HIV
  CC50: 280 µM
[2]; uninfected MT4 cells, AZT 50 nM to 500 nM
  TC50 in the presence of AZT: unchanged
[3]; read-out: IC50 50% Reduction in syncytial cell formation MT4 cells, HIV infected MT4 cells, SupT1 target cells
  IC50: 1 µM
[3]; read-out: IC50 50% Reduction in syncytial cell formation MT4 cells, HIV infected MT4 cells, SupT1 target cells, listed as AC2
  IC50: ~1 µM
[4]
  halflife in fresh blood: 4.56 h
[5]; 5 nM
  activity alone in syncytial cell assay: inactive
[5]; 5 nM L-AC2 plus 0.5 nM AZT, HIV infected MT4 cells
  inhibition of syncytia formation: ~50%
[5]; 10 nM
  activity alone in syncytial cell assay: inactive
[5]; compared with 12MO and AZT, FIG. 6
  synergistic effects with AZT: increased synergistic effects
[5]
  increase in activity (shift in dose response curve) when AZT was added: approximately 100 fold
[6]
  CC50: 220 µM
[7]
  liposome formation: formed liposomes
[8]; PBMC, listed as AC2
  IC50: ~4 µM
[8]; PBMC
  IC50: 6 µM
[9]; 1 μM, 15 day acute infection
  inhibition of HIV infection in macrophages (p24 antigen): completely suppressed
[9]; 1 μM, 15 day acute infection, listed as AC2
  inhibition of HIV infection in macrophages (p24 antigen): completely effective
[9]
  dose response behaviour in MDM: No dose response was observed
[9]; all doses tested (1-100 μM)
  inhibition of HIV infection in macrophages (p24 antigen): completely inhibited
[9]; comparison in words
  potency in HIV infected MDM compared with 12MO: significantly more potent
[10]
  IC50: ~1 µM

## 1-(12-methoxydodecanoyl)-sn-3-glycerophosphatidylcholine [lysoAC2]
[11]; read-out: IC50, reduction of virus induced cytopathic effect (CPE), 7 days, FIG. 1
  IC50: ~100 µM
[12]
  toxicity compared with the other analogs: significantly less toxic

## 1-myristoyl-2-(12-methoxydodecan-oyl)-sn-3-phosphalidylcholine [AC1]
[7]
  liposome formation: formed liposomes
[11]; 50 μM
  activity in direct cytopathic assay: little activity
[11]; FIG. 1, in words
  anti-HIV activity with the active fatty acid anchored in the sn-2 position: significantly reduced the activity
[9]
  inhibition of HIV p24 antigen production in MDM: completely suppressed
[9]; 100 μM
  inhibition of HIV infection in macrophages (p24 antigen): almost complete inhibition
[9]; listed as L-AC1
  dose response behaviour in MDM: dose responsive activity
[12]
  toxicity compared with the other analogs: significantly less toxic

## COCCCCCCCCCCCC(=O)O [12MO, 12-methoxydodecanoic acid, reference compound]
[13]
  CC50 at 5 days: 140 µM
[14]
  T2 for incorporation into triglycerides and membrane lipids: 1 to 2 min
[3]; Human immunodeficiency virus 1, read-out: IC50 50% Reduction in syncytial cell formation MT4 cells, HIV infected MT4 cells, SupT1 target cells
  IC50: ~4 µM
[3]; MT4 cells, syncytial cell assay
  Therapeutic Index MT4 cells (TC50/IC50): 35
[5]
  increase in activity (shift in dose response curve) when AZT was added: < 10 fold
[15]; 40 μM
  direct cytotoxicity to CEM cells: showed toxicity
[15]; CEM cells, comparison in words
  toxicity compared with the other analogs: most toxic analog tested in this series
[15]; dose up to 400 μM
  direct cytotoxicity to CEM cells: toxic
[16]
  synergism when administered concurrently with AZT (reported): act synergistically
[17]
  CC50 at 5 days: 340 µM
[18]
  toxicity in macrophage experiment: toxic
[8]; Human immunodeficiency virus 1, PBMC, 168 h
  IC50: ~12 µM
[8]; PBMC
  IC50: 19 µM
[9]
  inhibition of HIV p24 antigen production in MDM: little activity
  dose response behaviour in MDM: very steep dose response effect
[9]; 100 μM
  activity in MDM: ~100%
  inhibition of HIV infection in macrophages (p24 antigen): completely suppressed; also recorded: suppressed HIV replication
[9]; doses from 1 to 50 μM (below 100 μM)
  inhibition of HIV infection in macrophages (p24 antigen): little activity

## CCCCCCCCCCCCCC(=O)OC[C@H](COP(=O)(O)OCCN)OC(=O)CCCCCCCCCCCOC [L-PE1, 1-Myristoyl-2-[12-methoxydodecanoyl]-sn-glycero-3-phosphoethanolamine]
[4]
  half-life: > 50 h
[10]; Human immunodeficiency virus 1
  IC50: 6 µM

## COCCCCCCCCCCCC(=O)OC[C@H](COP(=O)(O)OCCN)OC(=O)CCCCCCCCCCCOC [L-PE2, 1,2 di-(12-Methoxydodecanoyl)-sn-glycero-3-phosphoethanolamine]
[4]
  half-life: 9.36 h
[10]
  anti-HIV activity relative to 12MO: > 100 fold
[10]; Human immunodeficiency virus 1
  IC50: 0.02 µM
